Source: patent publication US20220064167A1, “IMIDAZO-PYRAZOLE CARBOXAMIDE DERIVATIVES AS ANTICANCER AGENTS AND THE SYNTHESIS THEREOF” (AVIDIN KFT., priority 2018, published 2022)
pIC50: −log10 of the molar value.

How the values were obtained:
[1] = tested on: human breast adenocarcinoma cell line, MCF-7; assay: resazurin viability assay, 72 h (Table 1); type: cell-based; conditions: MCF7, 72h incubation, 156 nM-100 μM
[2] = tested on: human promyelocytic leukemia, HL-60 cells; assay: resazurin viability assay, 72 h (Table 1); type: cell-based; conditions: 72h incubation, 156 nM-100 μM
[3] = tested on: mouse mammary carcinoma 4T1; assay: resazurin viability assay, 72 h (Table 1); type: cell-based; conditions: 72h incubation, 156 nM-100 μM
HL-60 cells = assay: resazurin viability assay, Example 103 (FIG. 1); type: cell-based; conditions: Homo sapiens, 72 h incubation, 20.000 cells/well, read-out: half-inhibitory concentration (IC50) on viability of HL-60 cells
Protocol: The human primary fibroblasts (6000 cells/well) and Hl60 cells (20.000 cells/well) were seeded into 96-well plates (Corning Life Sciences) in media. Fibroblasts were cultured overnight before treatment. Effects of compounds described in Example 22, 60 and 83 were examined in concentrations of 1 μM, 250 nM, 62.5 nM, 15.6 nM, 3.9 nM and 0.9 nM in 100 μl after 72 h incubation. Resazurin reagent was prepared and used as described in Example 1.
(§1) Viability was calculated with relation to untreated control cells and blank wells containing media without cells. IC50 values (50% inhibiting concentration) were calculated by GraphPad Prism® 5.

[4] = tested on: human primary fibroblasts; assay: resazurin viability assay on primary fibroblasts, Example 103 (FIG. 1); type: cell-based; conditions: 72 h incubation, applied concentration range 1.6 nM-5 μM
Text: To obtain primary human fibroblasts healthy volunteers (age 18-60 years) were enrolled into the study. The punch biopsies were taken from healthy subjects from the breast area undergoing plastic surgery. Primary fibroblasts were obtained from the skin by enzymatic digestion according to a standard protocol. Skin specimens were first washed in Salsol A solution (Human Rt, Gödöllö, Hungary) supplemented with 2% antibiotic/antimycotic solution (Sigma-Aldrich). Skin samples were then cut into narrow strips and incubated in Dispase solution (Roche Diagnostics, Mannheim, Germany) overnight at 4° C. The epidermis was subsequently separated from the dermis. Fibroblasts were obtained by incubating the dermis in Digestion Mix solution (Collagenase, Hyaluronidase and Deoxyribonuclease) for 2h at 37° C. Cell suspensions were filtered through a 100 μm nylon mesh (BD Falcon, San Jose, Calif., USA) and cells were pelleted by centrifugation. Fibroblasts were grown in low glucose DMEM medium containing 5% FBS, 1% antibiotic/antimycotic (PAA, Pasching, Austria) and 1% L-glutamine solution (PAA). Fibroblasts were cultured at 37° C. and 5% CO2 in humidified conditions. Depending on the cell growth, the medium was changed every 2-4 days and cells were passaged at 80% of confluence.
The human primary fibroblasts (6000 cells/well) and Hl60 cells (20.000 cells/well) were seeded into 96-well plates (Corning Life Sciences) in media. Fibroblasts were cultured overnight before treatment. […] Resazurin reagent was prepared and used as described in Example 1.
as §1

A375 (human melanoma) = assay: viability assay (Table 2); type: cell-based; conditions: A-375
Protocol: (§2) For viability assays cells were seeded in 96 well plates (MCF7 and 4T1: 6000, HL60: 120.000 cells/well) and incubated overnight. Compounds were dissolved in dimethyl sulfoxide (DMSO). Cells were treated with an increasing concentration of compounds having the general formula (I.) (156 nM-100 μM). Cell viability was determined after 72h incubation. Resazurin reagent (Sigma-Aldrich) was dissolved in PBS (pH 7.4) at 0.15 mg/ml concentration, sterile filtered (0.22 μm, Merck Millipore) and aliquoted at −20° C. Resazurin reagent (Sigma-Aldrich) was added at a final concentration of 25 μg/ml. After 2 hours incubation at 37° C. 5% CO2 fluorescence (530 nm excitation/580 nm emission) was recorded on a multimode microplate reader (Cytofluor4000, PerSeptive Biosytems). Viability was calculated with relation to untreated control cells and blank wells containing media without cells. IC50 values (50% inhibiting concentration) were calculated by GraphPad Prism® 5 (La Jolla, Calif., USA).
(§3) GBM2 (human glioblastoma), HeLa (human cervical carcinoma), MIA PaCa-2 (human pancreas carcinoma) and U87MG (human glioblastoma) cells were maintained in Dulbecco's Modified Eagle Medium (DMEM) 10% fetal calf serum (FCS, Gibco). A375 (human melanoma), A549 (human lung adenocarcinoma) and HEP3B (human hepatoma) cells were maintained in Dulbecco's Modified Eagle Medium/Nutrient Mixture F-12 (DMEM/F12) 10% FCS.
(§4) Media were supplemented with 2 mM GlutaMAX, and 100 U/mL penicillin, 100 μg/mL streptomycin (Life Technologies, Carlsbad, Calif., USA). Cell cultures were maintained at 37° C. in a humidified incubator in an atmosphere of 5% CO2 (Sanyo, Japan).
(§5) Viability assays were performed as described in Example 102.

[5] = tested on: GBM2 (human glioblastoma); assay: viability assay (Table 2); type: cell-based
Protocol: as §2, §3, §4, §5

HT168 (human melanoma) = assay: viability assay (Table 2); type: cell-based
Protocol: as §2
HT168 (human melanoma), HT199 (human melanoma), HT29 (human colorectal adenocarcinoma), MOLT4 (human leukemia) and U937 (human lymphoma) cells were maintained in Roswell Park Memorial Institute 1640 medium (RPMI-1640) 10% FCS. SKOV-3 cells were maintained in Dulbecco's Modified Eagle Medium/McCoy's medium (DMEM/McCoy) 10% FCS.
as §4, §5

[6] = tested on: HL-60 (acute promyelocytic leukemia); assay: viability assay (Table 3); type: cell-based; conditions: Homo sapiens, 20000 cells/well, 10 μM-0.2 nM
Protocol: as §2
(§6) Cancer cell lines were purchased from the American Type Culture Collection (ATCC, Manassas, Va., USA). HT29 (human colorectal adenocarcinoma), HL-60 (acute promyelocytic leukemia), THP-1 (acute monocytic leukemia), MOLT-4 (acute T-lymphoblastic leukemia), MV-4-11 (biphenotypic B myelomonocytic leukemia) and K-562 (erythroleukemia) cells were maintained in Roswell Park Memorial Institute 1640 medium (RPMI-1640) with 10% FCS. Media were supplemented with 2 mM GlutaMAX, and 100 U/mL penicillin, 100 μg/mL streptomycin (Life Technologies, Carlsbad, Calif., USA). Cell cultures were maintained at 37° C. in a humidified incubator in an atmosphere of 5% CO2 (Sanyo, Japan).
(§7) Viability assays were performed as described in Example 102 with minor modification for cell density and tested concentration range. Applied cell densities: in case of human primary fibroblast 6000, for HT29 4000, for HL-60, MOLT-4, MV-4-11, THP-1, K-562 20000 cells/well. Applied compound concentration range: 10 μM-0.2 nM.

[7] = tested on: HT29 (human colorectal adenocarcinoma); assay: viability assay (Table 3); type: cell-based; conditions: HT-29, 4000 cells/well, 10 μM-0.2 nM
Protocol: as §2, §6, §7

K-562 (erythroleukemia) = assay: viability assay (Table 3); type: cell-based; conditions: Homo sapiens, K562; 20000 cells/well, 10 μM-0.2 nM
Protocol: as §2, §6, §7

[8] = tested on: MOLT-4 (acute T-lymphoblastic leukemia); assay: viability assay (Table 3); type: cell-based; conditions: Homo sapiens, 20000 cells/well, 10 μM-0.2 nM
Protocol: as §2, §6, §7

[9] = tested on: MV-4-11 (biphenotypic B myelomonocytic leukemia); assay: viability assay (Table 3); type: cell-based; conditions: Homo sapiens, MV4-11; 20000 cells/well, 10 μM-0.2 nM
Protocol: as §2, §6, §7

[10] = tested on: THP-1 (acute monocytic leukemia); assay: viability assay (Table 3); type: cell-based; conditions: Homo sapiens, 20000 cells/well, 10 μM-0.2 nM
Protocol: as §2, §6, §7

human primary fibroblast = assay: viability assay (Table 3); type: cell-based; conditions: 6000 cells/well, 10 μM-0.2 nM
Protocol: as §2
Human primary fibroblasts were obtained from the skin by enzymatic digestion according to a standard protocol. Fibroblasts were grown in low glucose DMEM/F12 medium containing 15% FCS, 1% antibiotic/antimycotic (PAA, Pasching, Austria) and 1% L-glutamine solution (PAA). Fibroblasts were cultured at 37° C. and 5% CO2 in humidified conditions. […]

| SMILES | pIC50 [1] | pIC50 [2] | pIC50 [3] | melting point | further results |
| --- | --- | --- | --- | --- | --- |
| CC(C)(C)CC(C)(C)Nc1c(C(C)(C)C)[nH]c2c(C(N)=O)cnn12 [Example 22, 2-(Tert-butyl)-3-((2,4,4-trimethylpentan-2-yl)amino)-1H-imidazo[1,2-b]pyrazole-7-carbox-amide] | 5.83 | 5.91 | 5.73 | 155 to 156 °C | pIC50 (HL-60 cells): 6.03; decrease in viability of human primary fibroblasts [4]: Significant decrease in viability was not apparent; pIC50 (A375 (human melanoma)): 5.70; pIC50 [5]: 5.30; pIC50 (HT168 (human melanoma)): 5.52 |
| CC(C)(C)CC(C)(C)Nc1c(C(C)(C)C)[nH]c2c(C(=O)Nc3ccc(F)c(F)c3)cnn12 [Example 59, 2-(Tert-butyl)-N-(3,4-difluorophenyl)-3-((2,4,4-trimethylpentan-2-yl)amino)-1H-imidazo[1,2-b]pyrazole-7-carboxamide] | 4.99 | 5.62 | 4.72 | 162 to 164 °C |  |
| CC(C)(C)Nc1c(C(C)(C)C)[nH]c2c(C(=O)Nc3ccc(O)cc3)cnn12 [Example 90, 2-(Tert-butyl)-3-(tert-butylamino)-N-(4-hydroxyphenyl)-1H-imidazo[1,2-b]pyrazole-7-carboxamide] |  |  |  |  | pIC50 [6]: 7.78; pIC50 [7]: 8.00; pIC50 (K-562 (erythroleukemia)): 7.27; pIC50 [8]: 7.56; pIC50 [9]: 7.49; pIC50 [10]: 7.59; pIC50 (human primary fibroblast): < 5.52 |

More lines, main results first:

| pIC50 [1] | pIC50 [2] | pIC50 [3] | melting point | SMILES | further results |
| --- | --- | --- | --- | --- | --- |
| 4.66 | 5.41 | < 4.30 | 169 to 170 °C | CSc1ccc(NC(=O)c2cnn3c(NC(C)(C)CC(C)(C)C)c(C(C)(C)C)[nH]c23)cc1 [Example 56, 2-(Tert-butyl)-N-(4-(methylthio)phenyl)-3-((2,4,4-trimethylpentan-2-yl)amino)-1H-imidazo[1,2-b]pyrazole-7-carboxamide] |  |
| 5.00 | 6.53 | 4.93 | 176 to 177 °C | CN(C)c1ccc(NC(=O)c2cnn3c(NC(C)(C)CC(C)(C)C)c(C(C)(C)C)[nH]c23)cc1 [Example 57, 2-(Tert-butyl)-N-(4-(dimethylamino)phenyl)-3-((2,4,4-trimethylpentan-2-yl)amino)-1H-imidazo[1,2-b]pyrazole-7-carboxamide] |  |
| < 4.30 | 6.20 | < 4.30 | 174 °C | CC(C)(C)CC(C)(C)Nc1c(C(C)(C)C)[nH]c2c(C(=O)Nc3ccc(F)cc3F)cnn12 [Example 58, 2-(Tert-butyl)-N-(2,4-difluorophenyl)-3-((2,4,4-trimethylpentan-2-yl)amino)-1H-imidazo[1,2-b]pyrazole-7-carboxamide] |  |
